Test system: 857933-349-R-J2-PDC complex spheroid viability
Experiment: Anticancer human tumor 857933-349-R-J2-PDC patient-derived colon adenocarcinoma cell line growth inhibition [POLQ]
Conditions: for IC50: curve of first compound; for viability, T/C: stronger effect = lower value; active = viability on the fitted dose curve at most 10% of control; inactive = the rest
Summary of the method: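 Complex spheroid viability model combining PDC tumour cells with endothelial (HUVEC) and MSC stromal cells. Novobiocin, ART-558 or RP6685 were tested singly and in combination with standard and investigational anticancer drugs. Each was titrated in half-log steps from near clinical Cmax, or from 10 microM where Cmax was unknown.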

[1] = second compound 0.0316 µM, first compound 0.0316 µM
[2] = second compound 0.0316 µM, first compound 0.1 µM
[3] = second compound 0.0316 µM, first compound 0.316 µM
[4] = second compound 0.0316 µM, first compound 1 µM
[5] = second compound 0.0316 µM, first compound 3.16 µM
[6] = second compound 0.0316 µM, first compound 10 µM
[7] = second compound 0.1 µM, first compound 0.0316 µM
[8] = second compound 0.1 µM, first compound 0.1 µM
[9] = second compound 0.1 µM, first compound 0.316 µM
[10] = second compound 0.1 µM, first compound 1 µM
[11] = second compound 0.1 µM, first compound 3.16 µM
[12] = second compound 0.1 µM, first compound 10 µM
[13] = second compound 0.316 µM, first compound 0.0316 µM
[14] = second compound 0.316 µM, first compound 0.1 µM
[15] = second compound 0.316 µM, first compound 0.316 µM
[16] = second compound 0.316 µM, first compound 1 µM
[17] = second compound 0.316 µM, first compound 3.16 µM
[18] = second compound 0.316 µM, first compound 10 µM
[19] = second compound 1 µM, first compound 0.0316 µM
[20] = second compound 1 µM, first compound 0.1 µM
[21] = second compound 1 µM, first compound 0.316 µM
[22] = second compound 1 µM, first compound 1 µM
[23] = second compound 1 µM, first compound 3.16 µM
[24] = second compound 1 µM, first compound 10 µM
[25] = second compound 3.16 µM, first compound 0.0316 µM
[26] = second compound 3.16 µM, first compound 0.1 µM
[27] = second compound 3.16 µM, first compound 0.316 µM
[28] = second compound 3.16 µM, first compound 1 µM
[29] = second compound 3.16 µM, first compound 3.16 µM
[30] = second compound 3.16 µM, first compound 10 µM
[31] = second compound 10 µM, first compound 0.0316 µM
[32] = second compound 10 µM, first compound 0.1 µM
[33] = second compound 10 µM, first compound 0.316 µM
[34] = second compound 10 µM, first compound 1 µM
[35] = second compound 10 µM, first compound 3.16 µM
[36] = second compound 10 µM, first compound 10 µM
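Also: spheroids exposed to compounds for seven days before readout.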

CC1COCCN1c1cc(C2(O)CC3CCC(C2)O3)c2cnn(-c3ccn[nH]3)c2n1 (centres undefined) + Cc1cccc(N(C)C(=O)C2C(O)CCN2c2nc(C)cc(C(F)(F)F)c2C#N)c1
365 nM: IC50 (second compound 0.1 µM)
291 nM: IC50 (second compound 0.316 µM)
231 nM: IC50 (second compound 10 µM)
268 nM: IC50 (second compound 3.16 µM)
202 nM: IC50 (second compound 1 µM)
inactive: viability, T/C [1] 73.2% | viability, T/C [2] 56.1% | viability, T/C [3] 50.3% | viability, T/C [4] 41.7% | viability, T/C [5] 42.7% | viability, T/C [6] 43.6% | viability, T/C [7] 60.5% | viability, T/C [8] 62.9% | viability, T/C [9] 50.1% | viability, T/C [10] 38.3% | viability, T/C [11] 50.1% | viability, T/C [12] 59.1% | viability, T/C [13] 76.4% | viability, T/C [14] 69.9% | viability, T/C [15] 48.4% | viability, T/C [16] 45.9% | viability, T/C [17] 41.3% | viability, T/C [18] 48.7% | viability, T/C [19] 67.1% | viability, T/C [20] 59.5% | viability, T/C [21] 38.4% | viability, T/C [22] 43.4% | viability, T/C [23] 46.6% | viability, T/C [24] 47.5% | viability, T/C [25] 60.5% | viability, T/C [26] 62.5% | viability, T/C [27] 47.6% | viability, T/C [28] 41.1% | viability, T/C [29] 54.4% | viability, T/C [30] 49.3% | viability, T/C [31] 56.3% | viability, T/C [32] 55.9% | viability, T/C [33] 50.5% | viability, T/C [34] 36.9% | viability, T/C [35] 51.7% | viability, T/C [36] 40.1%
247 nM: IC50 (second compound 0.0316 µM)

O=C(Nc1ccc(O)c(NS(=O)(=O)c2ccc(F)cc2)c1)c1ccc(-c2ccccc2)cc1 + Cc1cccc(N(C)C(=O)C2C(O)CCN2c2nc(C)cc(C(F)(F)F)c2C#N)c1
> 10000 nM: IC50 (second compound 0.0316 µM) | IC50 (second compound 0.1 µM) | IC50 (second compound 0.316 µM) | IC50 (second compound 1 µM) | IC50 (second compound 3.16 µM) | IC50 (second compound 10 µM)
inactive: viability, T/C [1] 90.2% | viability, T/C [2] 85.2% | viability, T/C [3] 88.2% | viability, T/C [4] 90.6% | viability, T/C [5] 90.3% | viability, T/C [6] 92.5% | viability, T/C [7] 97.7% | viability, T/C [8] 86.2% | viability, T/C [9] 87% | viability, T/C [10] 97.5% | viability, T/C [11] 91.9% | viability, T/C [12] 90.8% | viability, T/C [13] 97.7% | viability, T/C [14] 85.5% | viability, T/C [15] 97.8% | viability, T/C [16] 93.4% | viability, T/C [17] 88.9% | viability, T/C [18] 70.8% | viability, T/C [19] 99.1% | viability, T/C [20] 82% | viability, T/C [21] 96.8% | viability, T/C [22] 95.4% | viability, T/C [23] 114% | viability, T/C [24] 93% | viability, T/C [25] 97.9% | viability, T/C [26] 95.9% | viability, T/C [27] 97.6% | viability, T/C [28] 93.4% | viability, T/C [29] 96.8% | viability, T/C [30] 77.7% | viability, T/C [31] 95.3% | viability, T/C [32] 105% | viability, T/C [33] 91% | viability, T/C [34] 90% | viability, T/C [35] 88.6% | viability, T/C [36] 73.8%

— PubChem BioAssay AID1963836 (Molecular Pharmacology Branch, DTP, NCI, 2024)
